Here are results for five molecules from PMC4490394 (Scientific Reports, 2015).

The structures appear in SMILES notation. Where a chain is given by its changes, count along the chain named. Values joined by “and” are separate entries in the source; they are usually repeats but may differ in a detail not shown here. Equal values may be shown once. Read-outs that look alike come from different tables or passages of the source.

The test system of one data set is VCaP cells. Description: VCaP proliferation assay (WST-1). Conditions: Homo sapiens, 96 h. Format: cell-based. A general note: Tetrazolium dyes change colour on reduction, which living cells bring about.
The nature of data set [1]: Brain penetrance, brain/plasma ratio from AUC0-24. Conditions: male, BALB/c or Balb/cOlaHsd nude, mouse, mice, single oral dose of 10 mg/kg, based on AUC0–24. It is filed as in vivo.
The subject of another data set is subcutaneous VCaP tumors. The experiment in a line: Castration-resistant VCaP xenograft, tumor volume. Format: in vivo, castrated nude mice.
Data set [2] is described as follows: Pharmacokinetic parameters in mice after 7 days oral dosing. Format: in vivo. Conditions: male, BALB/c or Balb/cOlaHsd nude, mouse, plasma, 20 mg/kg qd oral, read-out: AUC24. As for the experimental part: Control mice received vehicle. […] Brain samples (without olfactory bulbs and medulla oblongata) from each group and time point were pooled and homogenized before the analysis. […] Plasma and brain concentration vs. time were evaluated by noncompartmental analysis using WinNonlin® Professional v. 5.2 software (Pharsight Corporation). Brain/plasma ratios were calculated based on AUC0–24 values for plasma and brain.

The next data set relates to serum testosterone. Description: Serum testosterone in intact nude mice bearing orthotopic VCaP tumors. Format: in vivo. Conditions: 20 mg/kg qd oral, 3 weeks, p < 0.05 vs vehicle. As for the experimental part: One million VCaP cells in 20 μL of RPMI-1640 medium were orthotopically injected into the dorsal prostate lobes of athymic nude male mice (7 weeks old from Harlan Winkelman, France). Tumor growth was followed by measuring serum PSA (ProStatus™ PSA EQM Kits, Wallac, Finland). […] At autopsy, blood samples were collected by heart puncture, clotted overnight at +4 °C, and centrifuged. For serum testosterone determination, 25-μL aliquots were extracted twice with 2 mL of diethyl ether and evaporated under nitrogen to dryness. The residues were reconstituted in PBS and measured using a standard radioimmunoassay as described previously.

Data set [3] in a line: Body weight of mice bearing subcutaneous VCaP xenograft tumors. It is filed as in vivo, castrated nude mice. Conditions: enzalutamide 20 mg/kg qd oral, individual animals, vs BW before treatment. As for the experimental part:
BALB/c nude male mice (7 weeks old from Charles River, Germany) were subcutaneously injected with 2 million VCaP cells in 100 μL of RPMI-1640 medium and Matrigel (BD) (1:1). Tumor growth was monitored twice weekly by caliper measurements. The volume of the tumor was calculated according to the formula W^2 × L/2 (mm^3), where W is the shorter and L the longer diameter of the tumor. When the average tumor volume reached ~200 mm^3, mice were castrated or SHAM-operated under Avertin anesthesia. […] For all in vivo studies, Macrocol® (Merck) + propylene glycol +5% glucose (50:30:20, v/v/v) was used as a vehicle.

The target in another data set is T1, AR(F876L) (Homo sapiens, UniProt P10275, F877L).
T1 sequence (P10275 1-920 F877L): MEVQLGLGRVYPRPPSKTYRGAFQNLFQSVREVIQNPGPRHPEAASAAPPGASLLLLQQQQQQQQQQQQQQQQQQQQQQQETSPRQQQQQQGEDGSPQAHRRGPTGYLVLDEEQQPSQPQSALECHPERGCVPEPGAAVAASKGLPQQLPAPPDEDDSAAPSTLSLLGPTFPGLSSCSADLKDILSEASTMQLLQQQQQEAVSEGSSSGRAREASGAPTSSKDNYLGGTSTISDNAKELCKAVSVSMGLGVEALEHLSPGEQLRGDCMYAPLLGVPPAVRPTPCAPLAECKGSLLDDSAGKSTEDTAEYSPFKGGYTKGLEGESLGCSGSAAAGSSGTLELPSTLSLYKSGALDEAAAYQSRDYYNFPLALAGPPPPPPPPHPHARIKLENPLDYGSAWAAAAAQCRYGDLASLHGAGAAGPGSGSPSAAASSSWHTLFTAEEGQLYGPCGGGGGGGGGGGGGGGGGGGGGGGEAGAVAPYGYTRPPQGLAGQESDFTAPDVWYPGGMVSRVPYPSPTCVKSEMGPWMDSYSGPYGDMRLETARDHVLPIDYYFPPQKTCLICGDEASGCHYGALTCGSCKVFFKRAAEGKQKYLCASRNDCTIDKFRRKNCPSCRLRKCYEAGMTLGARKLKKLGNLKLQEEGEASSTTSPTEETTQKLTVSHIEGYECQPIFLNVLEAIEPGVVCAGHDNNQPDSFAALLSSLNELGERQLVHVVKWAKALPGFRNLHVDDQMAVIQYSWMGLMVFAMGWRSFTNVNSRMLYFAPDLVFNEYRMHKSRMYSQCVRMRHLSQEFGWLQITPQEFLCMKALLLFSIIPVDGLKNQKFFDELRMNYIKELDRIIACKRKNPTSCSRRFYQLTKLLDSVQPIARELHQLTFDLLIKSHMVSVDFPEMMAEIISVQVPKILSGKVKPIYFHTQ

The target of a further data set is T2, AR(W741L) (Homo sapiens, UniProt P10275, W742L).
T2 sequence (P10275 1-920 W742L): T1 sequence (P10275 1-920 F877L) with W742L, L877F

For a further data set, the target named is T3, AR(T877A) (Homo sapiens, UniProt P10275, T878A).
T3 sequence (P10275 1-920 T878A): T1 sequence (P10275 1-920 F877L) with L877F, T878A

The subject of data set [4] is AR nuclear translocation in HS-HEK293 cells. Conditions: 0.3 or 1.0 μM test compound with 0.3 nM testosterone, HS-HEK293 cells.
Details of data set [5]: method as in PMID 15470213. Conditions: CRPC ref 7; cited from earlier work.

As for `CNC(=O)c1ccc(N2C(=S)N(c3cnc(C#N)c(C(F)(F)F)c3)C(=O)C23CCC3)cc1F` [ARN-509, reference compound], the IC50 in the data set on VCaP cells (read-out: IC50, androgen-induced VCaP cell proliferation) was found to be 420 nM. The Kp (commonly tissue or fluid exposure divided by exposure in the circulation) in [1] stood at 0.62.
With `CNC(=O)c1ccc(N2C(=S)N(c3ccc(C#N)c(C(F)(F)F)c3)C(=O)C2(C)C)cc1F` [Enzalutamide, enzalutamide, reference compound], the “antitumor activity (tumor volume)” value in the data set with subcutaneous VCaP tumors (20 mg/kg oral once daily, 37 days, p < 0.05 vs castrated untreated mice) is listed as “inhibition of tumor growth”. For the same molecule, in data set [2], the AUC was found to be 479 µg·h/mL. The “effect on serum testosterone levels” value in the data set on serum testosterone is “increased significantly”. Further, in data set [3], the “Change in body weight (%) d 3” value was 0.0% (2×) and -6.2% and -2.7% and -0.6% and -0.5% and -2.0% and 1.3% and 0.5%; the “Change in body weight (%) d 9” value was 0.4% and 1.7% (2×) and 3.6% and 0.6% and 1.3% and 2.9% and 1.5% and 0.5%; the “Change in body weight (%) d 16” value was 1.8% (2×) and 1.2% and 3.0% and 2.6% and 6.8% and 5.6% and 5.5% and 8.7%; the “Change in body weight (%) d 23” value was 1.0% and -4.8% and -1.4% and 1.8% and -2.2% and -0.9% and -2.9% and -3.0%. For the same molecule, in data set [3], the “Change in body weight (%) d 30” value was 2.1% and -4.0% and -2.7% and 3.0% and 0.9% and 1.9% and -2.0% and -0.9%; the “Change in body weight (%) d 37” value is 5.1% and -0.9% and 0.5% (2×) and 3.6% and 3.5% and 7.2% and 1.3%.
Consider `CC(=O)c1cc(C(=O)N[C@@H](C)Cn2ccc(-c3ccc(C#N)c(Cl)c3)n2)n[nH]1` [ORM-15341], for which the IC50 in the data set on VCaP cells (0.1 nM mibolerone, steroid-depleted medium, 4 days, WST-1, read-out: IC50, androgen-induced VCaP cell proliferation) worked out at 170 nM. Moreover, on AR(F876L), the “functional activity (agonist/antagonist) on AR(F876L)” value is “full antagonists”. On AR(W741L), the “functional activity (agonist/antagonist) on AR(W741L)” value is listed as “full antagonists”. Further, on AR(T877A), the “functional activity (agonist/antagonist) on AR(T877A)” value is reported as “full antagonists”. In addition, the “effect on testosterone-induced nuclear translocation of AR” value in [4] is recorded as “inhibit”.
Consider `CC(O)(CS(=O)(=O)c1ccc(F)cc1)C(=O)Nc1ccc(C#N)c(C(F)(F)F)c1` (stereo not shown) [bicalutamide, reference compound], for which, in the data set on subcutaneous VCaP tumors (20 mg/kg per os, data not shown), the antitumor activity entry was “does not have any antitumor activity”. In addition, the “effect on testosterone-induced nuclear translocation of AR” value in data set [4] is “failed to block”.
For `CC(=O)O[C@@]12CO[C@@H]1C[C@H](O)[C@@]1(C)C(=O)[C@H](O)C3=C(C)[C@@H](OC(=O)[C@H](O)[C@@H](NC(=O)OC(C)(C)C)c4ccccc4)C[C@@](O)([C@@H](OC(=O)c4ccccc4)[C@H]21)C3(C)C` [docetaxel], the “median prolongation of survival” value in data set [5] is on record as 2.9 months.
